These results are taken from PMC10041525, “New Dual Inhibitors of Bacterial Topoisomerases with Broad-Spectrum Antibacterial Activity and In Vivo Efficacy against Vancomycin-Intermediate Staphylococcus aureus” (Journal of Medicinal Chemistry, 2023).

The test system of one series is A. baumannii ATCC 17978. The series can be described thus: MIC broth microdilution (CLSI). In kind it is cell-based. Conditions: Acinetobacter baumannii, ATCC17978. As for the experimental part: (§1) Cation-adjusted Mueller Hinton broth 2 (MHBII) was used for bacterial growth under standard laboratory conditions and for antimicrobial susceptibility tests. MHBII broth was prepared by dissolving 22 g of MHBII powder [containing beef extract (3 g), acid hydrolysate of casein (17.5 g), and starch (1.5 g); Becton Dickinson and Co.] in 1 L of water. To prepare MHBII agar, 14 g of agar (Bacto; Molar Chemicals) was added to 1 L of broth.
(§2) Bacterial strains were inoculated onto MHBII agar plates and grown overnight at 37 °C. Next, three individual colonies from each strain were inoculated into 1 mL of MHBII medium and propagated at 37 °C overnight, with agitation at 250 rpm. For Enterococcus sp., the cells were plated in brain–heart infusion [(BHI) medium] agar plates, and BHI broth was used to determine the MICs. […] Following the dilutions, each well was seeded with 5 × 10^4 bacterial cells (in 100 μL final volume). Each measurement was performed in three parallel replicates, and to avoid possible edge effects in the microwell plates, the outside rows (A, H) were filled with sterile medium. Following the inoculations, the plates were covered with the lids and wrapped in polyethylene plastic bags, to minimize evaporation but to allow O2 transfer. […] After incubation, the OD600 of each well was measured using a microplate reader (Synergy 2; Biotek).
For orientation: Dilution methods test growth across graded concentrations, often in twofold steps.

Another series relates to S. aureus ATCC 29213. Kind of series: MIC broth microdilution (CLSI). The format is cell-based. Particulars: Staphylococcus aureus, ATCC29213. How it is done: as §1, §2
In series [1] the test system is Enterococcus faecalis ATCC 29212. Kind of series: MIC broth microdilution (CLSI). In kind it is cell-based, E. faecalis. How it is done:
as §1, with “MICs (Tables 1 and S1–S3) were determined with a standard serial broth microdilution technique according to Clinical and Laboratory Standards Institute (CLSI) guidelines.[45] Cation-adjusted” for “Cation-adjusted”
(§3) Bacterial strains were inoculated onto MHBII agar plates and grown overnight at 37 °C. Next, three individual colonies from each strain were inoculated into 1 mL of MHBII medium and propagated at 37 °C overnight, with agitation at 250 rpm. For Enterococcus sp., the cells were plated in brain–heart infusion [(BHI) medium] agar plates, and BHI broth was used to determine the MICs. […] The highest final DMSO concentration in the experiments was 0.64% (in the case of the 64 μg/mL concentration of the inhibitor). Following the dilutions, each well was seeded with 5 × 10^4 bacterial cells (in 100 μL final volume). Each measurement was performed in three parallel replicates, and to avoid possible edge effects in the microwell plates, the outside rows (A, H) were filled with sterile medium. Following the inoculations, the plates were covered with the lids and wrapped in polyethylene plastic bags, to minimize evaporation but to allow O2 transfer. The plates were incubated at 37 °C under continuous shaking at 150 rpm for 18 h. After incubation, the OD600 of each well was measured using a microplate reader (Synergy 2; Biotek). The MICs were defined as the antibiotic concentrations which inhibited the growth of the bacterial cultures; that is, the drug concentration where the average OD600 increment of the three technical replicates was below 1.5-fold the background OD increment.

The test system of another series is K. pneumoniae ATCC 10031. The series can be described thus: MIC broth microdilution (CLSI). The format is cell-based. Conditions: Klebsiella pneumoniae, ATCC10031. How it is done: as §1, with “MICs (Tables 1 and S1–S3) were determined with a standard serial broth microdilution technique according to Clinical and Laboratory Standards Institute (CLSI) guidelines.[45] Cation-adjusted” for “Cation-adjusted”
as §3

Series [2] has as its system Enterobacter cloacae spp. cloacae ATCC 13047. The series can be described thus: MIC broth microdilution (CLSI). The format is cell-based. How it is done: as §1, with “MICs (Tables 1 and S1–S3) were determined with a standard serial broth microdilution technique according to Clinical and Laboratory Standards Institute (CLSI) guidelines.[45] Cation-adjusted” for “Cation-adjusted”
as §3

In series [3] the test system is S. aureus (MRSA) ATCC 43300. Kind of series: MIC broth microdilution (CLSI). The format is cell-based. Conditions: Staphylococcus aureus. As for the experimental part: as §1, with “MICs (Tables 1 and S1–S3) were determined with a standard serial broth microdilution technique according to Clinical and Laboratory Standards Institute (CLSI) guidelines.[45] Cation-adjusted” for “Cation-adjusted”
as §3

Series [4] concerns S. aureus (VISA) ATCC 700699. Kind of series: MIC broth microdilution (CLSI). In kind it is cell-based. How it is done:
as §1, with “MICs (Tables 1 and S1–S3) were determined with a standard serial broth microdilution technique according to Clinical and Laboratory Standards Institute (CLSI) guidelines.[45] Cation-adjusted” for “Cation-adjusted”
as §3

A further series deals with E. coli ATCC 25922. Kind of series: MIC broth microdilution (CLSI). The format is cell-based. Conditions: Escherichia coli, ATCC25922. As for the experimental part: as §1, with “MICs (Tables 1 and S1–S3) were determined with a standard serial broth microdilution technique according to Clinical and Laboratory Standards Institute (CLSI) guidelines.[45] Cation-adjusted” for “Cation-adjusted”
as §3

The next series relates to E. faecium ATCC 700221. The series can be described thus: MIC broth microdilution (CLSI). The format is cell-based. Conditions: Enterococcus faecium, ATCC700221. How it is done: as §1, with “MICs (Tables 1 and S1–S3) were determined with a standard serial broth microdilution technique according to Clinical and Laboratory Standards Institute (CLSI) guidelines.[45] Cation-adjusted” for “Cation-adjusted”
as §3

In another series the test system is P. aeruginosa ATCC 27853. Kind of series: MIC broth microdilution (CLSI). The format is cell-based. Conditions: Pseudomonas aeruginosa, ATCC27853. How it is done: as §1, with “MICs (Tables 1 and S1–S3) were determined with a standard serial broth microdilution technique according to Clinical and Laboratory Standards Institute (CLSI) guidelines.[45] Cation-adjusted” for “Cation-adjusted”
as §3

A short description of another series: in vitro. The format is in vitro ADME, mouse. Conditions: male, CD-1, mouse; for fraction unbound at 4 h, 5 μM: plasma (pooled). As for the experimental part:
The PPB studies were performed by Selvita d.o.o. (Zagreb, Croatia) in mouse plasma (CD-1 male, pooled, commercially obtained from BioIVT) via equilibrium dialysis. Compounds were assayed at 5 μM (0.5% DMSO) in two replicates, and incubation time was 4 h at 37 °C. Samples were taken at 0 min and 4 h. Aliquots from both buffer and plasma compartment matrix were matched and mixed with 6 volumes of STOP solution (acetonitrile/methanol (2:1) + internal standard – diclofenac) and analyzed by LC–MS/MS. Assay controls were caffeine (low), verapamil (moderate binding), and nicardipine (very high binding), and protein contamination was checked.

Series [5] can be described thus: mitochondrial toxicity glu/gal assay. The format is cell-based. Particulars: human, 0.1 µM, read-out: cell viability (ATP), % of control. How it is done: HepG2 cells were seeded in two 96-well plates at a density of 50,000 cells per well in 100 μL of growth medium. For the first plate, the growth medium contained glucose and for the second plate, it contained galactose. Cells were incubated overnight in a 5% CO2 atmosphere at 37 °C and allowed to attach onto the wells. […] The medium contained positive control (Rotenone). […] Luminescence was measured with Tecan Infinite 200 pro luminometer, and the values from each well treated with compound were compared to the values given by the negative control (medium only). The inhibition of mitochondrial function was determined by comparing ATP levels in galactose and glucose exposed cells. […]

Another series deals with T1, DNA gyrase from E. coli (Escherichia coli, UniProt P0AES6).
T1 construct: purchased Inspiralis
The series can be described thus: supercoiling HTS plate assay. The format is biochemical. Conditions: IC50 [nM] E. coli DNA gyrase. How it is done: (§4) All compounds were tested for their inhibitory activities against DNA gyrase and topo IV from E. coli in supercoiling and relaxation high-throughput plate assays, respectively. Our new series of inhibitors were then tested against a panel of Gram-positive and Gram-negative bacteria.
(§5) Seven concentrations of the inhibitors were used to determine IC50 values which were then calculated with GraphPad Prism 6.0 software. Three independent measurements were performed to determine IC50 values, and mean values are reported as the final result.

The target of another series is T2, topo IV from E. coli (Escherichia coli, UniProt P20083).
T2 construct: purchased Inspiralis
T2 sequence (P0AFI2 whole entry): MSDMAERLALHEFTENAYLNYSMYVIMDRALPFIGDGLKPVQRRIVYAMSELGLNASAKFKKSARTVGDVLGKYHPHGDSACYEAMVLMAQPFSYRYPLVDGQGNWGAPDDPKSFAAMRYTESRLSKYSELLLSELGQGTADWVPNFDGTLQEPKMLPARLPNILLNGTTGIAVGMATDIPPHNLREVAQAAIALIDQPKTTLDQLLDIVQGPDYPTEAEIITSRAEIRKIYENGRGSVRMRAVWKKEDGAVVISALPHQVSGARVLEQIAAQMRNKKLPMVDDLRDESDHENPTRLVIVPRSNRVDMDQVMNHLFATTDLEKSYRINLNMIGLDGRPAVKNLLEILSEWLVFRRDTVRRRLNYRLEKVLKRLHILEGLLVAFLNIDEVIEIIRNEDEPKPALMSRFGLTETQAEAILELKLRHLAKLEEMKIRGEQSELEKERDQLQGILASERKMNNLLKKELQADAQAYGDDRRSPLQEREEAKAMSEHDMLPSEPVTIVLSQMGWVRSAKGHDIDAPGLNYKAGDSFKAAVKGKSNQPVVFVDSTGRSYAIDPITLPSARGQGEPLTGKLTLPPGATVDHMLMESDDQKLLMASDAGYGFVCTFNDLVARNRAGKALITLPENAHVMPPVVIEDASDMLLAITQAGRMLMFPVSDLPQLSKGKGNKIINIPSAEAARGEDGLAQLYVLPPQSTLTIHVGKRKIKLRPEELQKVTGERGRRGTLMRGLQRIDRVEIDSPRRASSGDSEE
T2 sequence (P20083 whole entry): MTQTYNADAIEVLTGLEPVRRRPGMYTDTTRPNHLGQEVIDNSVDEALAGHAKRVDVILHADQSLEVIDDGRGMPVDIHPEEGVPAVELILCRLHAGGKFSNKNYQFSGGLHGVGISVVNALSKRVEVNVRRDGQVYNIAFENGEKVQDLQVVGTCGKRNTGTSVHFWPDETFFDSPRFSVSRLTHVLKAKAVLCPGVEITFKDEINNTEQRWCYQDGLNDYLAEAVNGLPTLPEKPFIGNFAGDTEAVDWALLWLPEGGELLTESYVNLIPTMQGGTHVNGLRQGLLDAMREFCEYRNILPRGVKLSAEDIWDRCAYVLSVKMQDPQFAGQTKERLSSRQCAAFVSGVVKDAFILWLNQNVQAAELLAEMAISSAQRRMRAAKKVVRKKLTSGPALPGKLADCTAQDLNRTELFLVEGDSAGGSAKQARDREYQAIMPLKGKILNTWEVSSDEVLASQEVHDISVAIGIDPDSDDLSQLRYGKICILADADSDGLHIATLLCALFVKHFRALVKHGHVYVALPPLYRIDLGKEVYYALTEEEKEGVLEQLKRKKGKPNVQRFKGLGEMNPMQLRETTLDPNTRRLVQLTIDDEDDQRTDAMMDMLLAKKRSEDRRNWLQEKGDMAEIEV
Kind of series: relaxation HTS plate assay. In kind it is biochemical. Conditions: IC50 [nM] E. coli TopoIV. As for the experimental part:
as §4, §5

A further series has as its system P. aeruginosa PAO1. The series can be described thus: MIC broth microdilution (CLSI). In kind it is cell-based. Particulars: Pseudomonas aeruginosa; PAO1 used for 7l, 8b, 14, 16b, 16c. How it is done:
as §1, with “MICs (Tables 1 and S1–S3) were determined with a standard serial broth microdilution technique according to Clinical and Laboratory Standards Institute (CLSI) guidelines.[45] Cation-adjusted” for “Cation-adjusted”
as §3
(§6) cMIC, minimum inhibitory concentration
(§7) Bacterial strains that were used: S. aureus ATCC 29213, S. aureus (MRSA) ATCC 43300, S. aureus (VISA) ATCC 700699, E. faecalis ATCC 29212, E. faecium ATCC 700221,
(§8) E. coli ATCC 25922, P. aeruginosa ATCC 27853 (PAO1 for compounds 7l, 8b, 14), A. baumannii ATCC 17978 (ATCC 19606 for compounds 7l, 8b, 14), K. pneumoniae ATCC
(§9) Measurements were performed according to the Clinical and Laboratory Standards Institute guidelines, with three independent measurements.

In the next series the test system is A. baumannii ATCC 19606. The series can be described thus: MIC broth microdilution (CLSI). Particulars: Acinetobacter baumannii, ATCC19606. The format is cell-based. How it is done: as §1, with “MICs (Tables 1 and S1–S3) were determined with a standard serial broth microdilution technique according to Clinical and Laboratory Standards Institute (CLSI) guidelines.[45] Cation-adjusted” for “Cation-adjusted”
as §3, §6, §7, §8, §9

In the next series the test system is K. pneumoniae ATCC 13883. Kind of series: MIC broth microdilution (CLSI). In kind it is cell-based. Particulars: Klebsiella pneumoniae, ATCC13883; ATCC 13883 used for 7l, 8b, 14, 16b, 16c. How it is done:
as §1, with “MICs (Tables 1 and S1–S3) were determined with a standard serial broth microdilution technique according to Clinical and Laboratory Standards Institute (CLSI) guidelines.[45] Cation-adjusted” for “Cation-adjusted”
as §3, §6, §7, §8, §9

Like-named read-outs stand apart in the source and are kept apart here. Bounds are passed on as bounds.

By viability is commonly meant the share of living cells, or the viability signal relative to a control. A word on the IC50: it is the concentration that gives 50% inhibition. Read a high IC50 as weaker potency in that assay.

Consider `Cc1[nH]c(C(=O)Nc2nc3c(OCc4ccccc4)cc(C(=O)O)cc3s2)c(Cl)c1Cl` [E], for which the MIC was 2 mg/L with A. baumannii ATCC 17978; 0.5 µg/mL in the series on S. aureus ATCC 29213; under 0.03125 mg/L in [1]; under 0.0312 mg/L in [1] (Enterococcus faecalis, ATCC29212); 4 mg/L in the series on K. pneumoniae ATCC 10031; over 64 mg/L in [2]. Moreover, the MIC in [2] (Enterobacter cloacae, ATCC13047) was over 64 mg/L; in series [3], 0.0625 mg/L; in series [4] it was under 0.03125 mg/L; in series [4] (Staphylococcus aureus), under 0.0312 mg/L; with E. coli ATCC 25922, 16 mg/L; in the series on E. faecium ATCC 700221, 0.0625 mg/L. Also, in the series with P. aeruginosa ATCC 27853, the MIC turned out to be 2 mg/L. In addition, the fraction unbound at 4 h, 5 μM is under 0.001 in “in vitro” (mouse plasma, 5 µM, 4 h, read-out: fu, fraction unbound) and under 0.01 in the series “in vitro” (read-out: plasma protein binding (PPB)). Also, the recovery at 4 h, 5 μM in “in vitro” (plasma protein binding assay) came to 94.1%.
On to `C=C(C)[C@H]1Cc2c(ccc3c2O[C@@H]2COc4cc(OC)c(OC)cc4[C@@H]2C3=O)O1` [Rot, Rotenone], for which the results for the viability at 24 h, 0.1 µM in series [5] (galactose) and in series [5] (glucose) were 1% and 64%, respectively.
`Cc1[nH]c(C(=O)Nc2nc3c(CN4CCOCC4)cc(C(=O)O)cc3s2)c(Cl)c1Cl.Cl` [compound 14, 4-((6-Carboxy-2-(3,4-dichloro-5-methyl-1H-pyrrole-2-carboxamido)benzo[d]thiazol-4-yl)methyl)morpholin-4-ium Chloride]: the IC50 at DNA gyrase from E. coli amounted to 13 ± 5 nM; on topo IV from E. coli, 460 ± 120 nM. Also, the MIC in the series with S. aureus ATCC 29213 (read-out: MIC) was 16 µg/mL; with S. aureus ATCC 29213 (read-out: MIC [µg/mL](S. aureus ATCC 29213)) it was 16 µg/mL; in the series on P. aeruginosa PAO1, over 64 mg/L; with A. baumannii ATCC 19606 (ATCC 19606 used for 7l, 8b, 14, 16b, 16c, read-out: MIC), over 64 µg/mL; in the series with A. baumannii ATCC 19606 (read-out: MIC [µg/mL] (A. baumannii ATCC 19606 for compounds 7l, 8b, 14)) it was over 64 µg/mL; in the series with K. pneumoniae ATCC 13883, 64 mg/L. Moreover, in the series on E. coli ATCC 25922 (read-out: MIC), the MIC was over 64 mg/L.
